From patent US6887879B2, “Pharmaceutical combination of antiviral agents” (priority 1999, dated 2005)
Where two headings read alike, the source gives them in different places.

How the values were obtained:
[1] = Cytotoxicity, [3H]-thymidine uptake, HepG2; assay type: cell-based; conditions: human, HepG2 cells
Description: (§1) The cellular toxicity of the BCH compounds were assessed on various cells using [^3H]-thymidine uptake. The various cells, including Molt-4, HT1080, DU-145, HepG 2 and HSF, were plated at a concentration of 1-2×10^3 cells per well (96 well plates). However, PHA-stimulated PBMCs were cultured at a concentration of 4×10^4. After a 24 hr incubation period, 10-fold serial diluted compounds (10^−4 M to 10^−10 M) were added to the culture medium and the cells were further incubated for 72 hrs. [^3H]-thymidine was added during the final 18 hr incubation period. After incubation with the [^3H]-thymidine, the cells were washed once with PBS, treated with trypsin it the cells were adherent, and then resuspended in water (hypotonic lysing of cells) The cellular extract was applied directly to a Tomtec Harvester 96. Using this instrument the extracted DNA is adsorbed onto filters, washed and the incorporated [^3H]-thymidine is then counted.

[2] = Cytotoxicity, [3H]-thymidine uptake, HT-1080; assay type: cell-based; conditions: human, HT-1080 cells
Description: as §1

[3] = Cytotoxicity, [3H]-thymidine uptake, DU145; assay type: cell-based; conditions: human, DU145 cells
Description: as §1

[4] = Cytotoxicity, [3H]-thymidine uptake, HSF; assay type: cell-based; conditions: human, human skin fibroblasts (HSF)
Description: as §1

[5] = Cytotoxicity, [3H]-thymidine uptake, Molt-4; assay type: cell-based; conditions: human, Molt-4 cells
Description: as §1

[6] = Cytotoxicity, WST-1 cell viability assay; assay type: cell-based, human; conditions: human, CBMCs, MT-2, H9, Jurkat and U937 cells; WST-1 cell viability assay
Description: The cellular toxicity of the compounds was also tested by WST-1 staining through assessing proliferation of MT-2, H9, Jurkat, U937, and CBMCs. The established cell lines were cultured in RPMI medium in 96-well plates at a density of 5×10^4 cells/well while CBMCs were plated at a concentration of 0.5×10^6/well. A 10-fold serial diluted (10^−4−10^−7 M) compound was added at day zero. At day 4, the cells were passaged by changing half medium containing appropriately diluted compound. The cell activities were assessed at day 7 using the WST-1 reagent (Boehringer Mannheim) following the protocol provided by the supplier.

HIV-1IIIB = test: Anti-HIV-1 antiviral assay, laboratory strain HIV-1IIIB, RT activity in culture supernatants
Description: Most experiments were performed with a laboratory strain HIV-1III. […] The cells were incubated with virus using the indicated multiplicity of infection (MOI) for 2-3 hrs. The MOI used for each experiment was dependent upon the cell line and virus strain used, and was generally in the range of 0.005 to 0.5. For example, in assays performed using the established cell line MT-2, HIV-1IIIB at an MOI of 0.005 was used to infect cells. The unbound virus was then removed by washing the cells, followed by plating the cells into a 96-well plate. The infected cells were cultured in the presence of a serial concentrations of the test compound for 5-7 days. The anti-HIV-1 efficacy was determined by testing for HIV-1 RT activity in the cell culture supernatants. All assays were performed in duplicate and at least two independent experiments were performed. […] The susceptibilities of the HIV-1 variants to antiretroviral agents are expressed as the mean of the EC50 determinations.

[7] = tested on: HIV-1 clinical isolate 4246; test: Antiviral assay, HIV-1 clinical isolate 4246, CBMCs; assay type: cell-based; conditions: Human immunodeficiency virus 1, read-out: EC50 in CBMCs
Description: (§2) HIV-1IIIB laboratory strain and HXB2-D recombinant of HIV-1 were kindly supplied by R. C. Gallo (Institute of Human Virology, Baltimore, Md.). […] The recombinant viruses were generated by transfection of proviral DNA into MT-4 cells with Lipofectamine using the protocol recommended by the manufacturer .(Gibco BRL, Montreal, Canada). […] Stock viruses were prepared from clarified culture supernatants by centrifugation and stored at −70° C. The viruses were titrated by limited dilution with a 4-fold serial dilution.
(§3) The population of HIV-1 in infected individual is quasispecies and the sensitivity of these different viruses found in clinical isolates to antiviral chemotherapy might be quite variable. In addition, HIV-1 isolates obtained from patients receiving long-term antiretroviral therapy might behave differently from cloned virus containing genetically engineered mutations in the RT gene. For these reasons, clinical isolates of HIV-1 from antiviral naive and drug-treated patients were assayed in PHA-stimulated CBMCs for their sensitivity to DXG and DAPD accompanied with approved antiretroviral agents. The genotype of the HIV-1 clinical isolates were determined as described above.

[8] = Cytotoxicity, [3H]-thymidine uptake, PBMC; assay type: cell-based; conditions: human, PHA-stimulated PBMCs
Description: as §1

[9] = tested on: HIV-1 clinical isolate 4924; test: microbe, parasite or virus in culture; assay type: cell-based
Description: as §2, §3

[10] = tested on: HIV-1 clinical isolate 4833; test: microbe, parasite or virus in culture; assay type: cell-based; conditions: for EC50: Human immunodeficiency virus 1, therapy Saquinavir (48 weeks), read-out: EC50 in CBMCs
Description: as §2, §3

[11] = tested on: HIV-1 clinical isolate 4242; test: microbe, parasite or virus in culture; assay type: cell-based
Description: as §2, §3

[12] = tested on: HIV-1 clinical isolate 3887; test: microbe, parasite or virus in culture; assay type: cell-based; conditions: Human immunodeficiency virus 1, read-out: EC50 in CBMCs
Description: as §2, §3

[13] = tested on: HIV-1 clinical isolate 4205; test: microbe, parasite or virus in culture; assay type: cell-based
Description: as §2, §3

[14] = tested on: HIV-1 clinical isolate 3350; test: microbe, parasite or virus in culture; assay type: cell-based
Description: as §2, §3

[15] = tested on: HIV-1 clinical isolate 4877; test: microbe, parasite or virus in culture; assay type: cell-based; conditions: Human immunodeficiency virus 1, read-out: EC50 in CBMCs
Description: as §2, §3

[16] = tested on: HIV-1 clinical isolate 4526; test: Antiviral assay, HIV-1 clinical isolate 4526, CBMCs; assay type: cell-based; conditions: Human immunodeficiency virus 1, naive
Description: as §2, §3

[17] = tested on: recombinant HXB2-D 10R/46I/63P/82T/84V; test: microbe, parasite or virus in culture; assay type: cell-based, HIV-1; conditions: Human immunodeficiency virus 1, HXB2, read-out: EC50 in CBMCs
Description: as §2

[18] = tested on: recombinant HXB2-D 41L/70R/215Y/219Q; test: microbe, parasite or virus in culture; assay type: cell-based, HIV-1; conditions: for EC50: Human immunodeficiency virus 1, HXB2, read-out: EC50 in CBMCs
Description: as §2

[19] = tested on: recombinant HXB2-D 41L/215Y/184V; test: microbe, parasite or virus in culture; assay type: cell-based, HIV-1; conditions: Human immunodeficiency virus 1, HXB2, read-out: EC50 in CBMCs
Description: as §2

recombinant HXB2-D 74V = test: microbe, parasite or virus in culture; assay type: cell-based, HIV-1; conditions: Human immunodeficiency virus 1, HXB2, read-out: EC50 in CBMCs
Description: as §2

recombinant HXB2-D 65R = test: microbe, parasite or virus in culture; assay type: cell-based, HIV-1; conditions: Human immunodeficiency virus 1, HXB2, read-out: EC50 in CBMCs
Description: as §2

recombinant HXB2-D WT = test: microbe, parasite or virus in culture; assay type: cell-based, HIV-1; conditions: Human immunodeficiency virus 1, HXB2, read-out: EC50 in CBMCs
Description: as §2

recombinant HXB2-D 184V = test: microbe, parasite or virus in culture; assay type: cell-based, HIV-1; conditions: Human immunodeficiency virus 1, HXB2, read-out: EC50 in CBMCs
Description: as §2

[20] = tested on: recombinant HXB2-D 106A/181C; test: microbe, parasite or virus in culture; assay type: cell-based, HIV-1; conditions: Human immunodeficiency virus 1, HXB2, read-out: EC50 in CBMCs
Description: as §2

wt HIV-1 RT = target: T1, wt HIV-1 RT (Human immunodeficiency virus type 1 group M subtype B, UniProt P04585); test: Chain elongation/termination assay; assay type: biochemical; conditions: HIV-PBS template, dPR primer, raising inhibitor concentration
T1 construct: Wild type (wt) version of recombinant HIV-1 RT were expressed with a histidine tag; histidine tag; made in house; host or cells: E. coli
Description: RT inhibition assay. The inhibition of HIV-1 RT RNA dependent DNA polymerase activity of DXG-TP was assessed under steady-state enzymatic kinetics by employing homopolymeric RNA templates/DNA primers (T/P) and a heteropolymeric RNA template/DNA primer. The heteropolymeric RNA template contains the HIV-1 primer binding sequence, US and R regions (designated as HIV-PBS). […] The oligodeoxynucleotide primer (dPR) is an 18-mer (5′-[…]-3′) which is complementary to the HIV-1 primer binding sequence. […] Inhibition of dNTP incorporation/chain termination. […] HIV-PBS RNA template and dPR DNA primer were used in this system. The RT reactions were performed in […] containing 50 mM Tris (pH 7.8), 75 mM KCl, 10 mM MgCl2, 100 μM of dNTPs. […] The reactions were allowed to proceed at 37° C. for 60 min in the presence or absence of inhibitors. The transcribed DNA products were separated on a 5% denaturing polyacrylamide gel and visualized by exposure to X-ray film.
The chain elongation/termination assay provides a method to directly visualize the products of incorporation of dideoxynucleotide monophosphates into nascent DNA by monitoring the reaction products using polyacrylamide gel electrophoresis. The experiment was performed using wt HIV-1 RT, and HIV-PBS heteropolymeric template, and [^32p]ATP labeled dPR primer in the presence of various concentrations of RT inhibitor. […] As comparison, NNRTI nevirapine was also used in the assay.

[21] = Human immunodeficiency virus 1, Jurkat, read-out: EC50, mean values ± SD
[22] = Human immunodeficiency virus 1, MT2, read-out: EC50, mean values ± SD
[23] = Human immunodeficiency virus 1, MT4, read-out: EC50, mean values ± SD
[24] = Human immunodeficiency virus 1, U-937
[25] = Human immunodeficiency virus 1, read-out: EC50, mean values ± SD
[26] = Human immunodeficiency virus 1, read-out: EC50 in CBMCs

Cc1cn([C@H]2C[C@H](N=[N+]=[N-])[C@@H](CO)O2)c(=O)[nH]c1=O [AZT, zidovudine, reference compound]
CC50 at 72 h [1]: 3 µM
CC50 at 72 h [2]: 5 µM
CC50 at 72 h [3]: > 10 µM
CC50 at 72 h [4]: > 10 µM
CC50 at 72 h [5]: 3 µM
CC50 at 7 days [6]: 74 µM
EC50 (HIV-1IIIB; [21]): 0.011 ± 0.007 µM
EC50 (HIV-1IIIB; [22]): 0.0076 ± 0.0044 µM
EC50 (HIV-1IIIB; [23]): 0.008 ± 0.005 µM
EC50 (HIV-1IIIB; [24]): 0.025 µM
EC50 (HIV-1IIIB; [25]): 0.0051 ± 0.003 µM

Nc1nc(N)c2ncn([C@H]3CO[C@@H](CO)O3)c2n1 [DAPD, (−)- -D-2,6-diaminopurine-1,3-dioxolane]
CC50 at 72 h [1]: > 500 µM
EC50 [7]: 0.41 ± 0.02 µM
CC50 at 72 h [2]: > 500 µM
CC50 at 72 h [8]: > 500 µM
CC50 at 72 h [3]: > 500 µM
EC50 [9, 26]: 0.17 µM
EC50 [10]: 0.63 ± 0.38 µM
sensitivity of isolate 4242, in words ([11]; 41L/70R/215Y in RT): remained sensitive
EC50 [11, 26]: 0.88 ± 0.3 µM
EC50 [12]: 0.19 ± 0.12 µM
EC50 [13, 26]: 4.1 ± 0.35 µM
decreased susceptibility compared to the lamivudine and AZT sensitive isolates ([13]; isolate 4205, 184V): ~5 fold
EC50 [14, 26]: 3.3 ± 1.2 µM
decreased susceptibility compared to the lamivudine and AZT sensitive isolates ([14]; isolate 3350, 184V): ~5 fold
EC50 [15]: 0.26 µM
CC50 at 72 h [4]: > 500 µM
CC50 at 72 h [5]: > 500 µM
EC50 [16]: 0.85 ± 0.071 µM
EC50 [17]: 1.37 ± 0.06 µM
sensitivity of AZT resistant virus, in words ([18]; 41L, 70R, 215Y and 219Q, CBMCs, also observed in MT-2 cells): remained completely sensitive
EC50 [18]: 1.25 ± 0.59 µM
EC50 [19]: 2.3 ± 0.05 µM
EC50 (recombinant HXB2-D 74V): 6.6 ± 3.4 µM
EC50 (recombinant HXB2-D 65R): 6.5 ± 2.1 µM
EC50 (recombinant HXB2-D WT): 1.1 ± 0.16 µM
EC50 (recombinant HXB2-D 184V): 2.1 ± 0.2 µM
EC50 (HIV-1IIIB; Human immunodeficiency virus 1, H9, read-out: EC50, mean values ± SD): 0.075 ± 0.04 µM
EC50 (HIV-1IIIB; [21]): 1.37 ± 0.72 µM
EC50 (HIV-1IIIB; [22]): 0.54 µM
EC50 (HIV-1IIIB; [23]): 0.94 ± 0.028 µM
EC50 (HIV-1IIIB; [24]): 1.3 µM
EC50 (HIV-1IIIB; [25]): 0.97 µM
EC50 fold higher than those for DXG (HIV-1IIIB; various cells): 5-20 fold

Nc1ccn([C@H]2CC[C@@H](CO)O2)c(=O)n1 [ddC, 2′,3′-dideoxycytidine]
CC50 at 72 h [1]: 7 µM
CC50 at 72 h [2]: 2 µM
CC50 at 72 h [8]: 32.5 µM
CC50 at 72 h [3]: 5 µM
CC50 at 72 h [5]: 2 µM
CC50 at 7 days [6]: 29 µM

Nc1ccn([C@@H]2CS[C@H](CO)O2)c(=O)n1 [lamivudine, reference compound]
CC50 at 72 h [1]: 350 µM
CC50 at 72 h [2]: > 500 µM
CC50 at 72 h [3]: > 500 µM
CC50 at 72 h [4]: 400 µM
EC50 [18]: 0.062 ± 0.02 µM
EC50 [19]: > 50 µM
EC50 (recombinant HXB2-D 74V): 0.12 ± 0.07 µM
EC50 (recombinant HXB2-D 65R): 0.36 ± 0.17 µM
EC50 (recombinant HXB2-D 184V): > 50 µM
EC50 (HIV-1IIIB; [21]): 0.53 ± 0.02 µM
EC50 (HIV-1IIIB; [22]): 0.091 ± 0.08 µM
EC50 (HIV-1IIIB; [23]): 0.056 ± 0.014 µM
EC50 (HIV-1IIIB; [25]): 0.023 ± 0.011 µM

Cc1ccnc2c1NC(=O)c1cccnc1N2C1CC1 [nevirapine, reference compound]
EC50 ([9]; Human immunodeficiency virus 1): > 10 µM
EC50 [9, 26]: > 10 µM
EC50 [15]: 0.065 µM
EC50 [20]: > 10 µM
chain termination / full-length products, in words (wt HIV-1 RT): showed the decrease of the full-length DNA products, but there were no extra chain termination bands generated

CC(C)(C)NC(=O)[C@@H]1C[C@@H]2CCCC[C@@H]2CN1C[C@@H](O)[C@H](Cc1ccccc1)NC(=O)[C@H](CC(N)=O)NC(=O)c1ccc2ccccc2n1 [saquinavir, reference compound]
decreased sensitivity compared to the baseline isolate 4526 [10]: about 20 fold
EC50 [10]: 0.11 µM
EC50 [16]: 0.0063 µM
EC50 [17]: 0.075 µM
